Values quoted from earlier work, collected in patent publication US12527745B2, “Pharmaceutical dosage form for an emulsion of simethicone and loperamide” (R.P. SCHERER TECHNOLOGIES, LLC, priority 2018, dated 2026).

Details: single surfactant

Substance: sorbitan mono-oleate
- HLB: 4.3

Substance: Polysorbate 80
- HLB: 15
